From patent US8895599B2, “Lipoprotein lipase-activating compositions comprising benzene derivates” (Otsuka Pharmaceutical Factory, Inc., priority 2008, dated 2014) come the findings set out here.

Experiment [1] can be described thus: Therapeutical effect on olive oil-induced triglyceride hyperlipidemia models. The format is in vivo. To be noted: once a day for one week, SD rats, 2 h after olive oil.
The nature of experiment [2]: Anti-obesity test using Zucker fatty rats. The format is in vivo. To be noted: 100 mg/kg oral, once a day over 4 weeks, relative to control group. The text has this: Anti-Obesity Test Using Zucker Fatty Rats
Zucker fatty rats are obese rats discovered by Zucker et al., in 1961 as mutants among 13 M rats, which are a hybrid between 13C and M rats. These rats (fa/fa) start to appear distinctly obese from normal broods around the age of 3 weeks. As they age, the weight difference between the fatty rats and normal rats increases. Zucker fatty rats are currently kept by a variety of organizations as simple obesity models, and are readily obtainable.
This test was performed using this rat model to evaluate the anti-obesity action of the compounds of the invention. The preparation method of test samples and the test procedures are described below:
The test samples were prepared in the same manner as in Test Example 2.
Zucker fatty rats and lean rats (both from Charles River Japan) were purchased at the age of 5 weeks. They were divided into groups (10 rats per group) according to body weight when they reached 6 weeks old. After acclimatization, the administration of test samples was initiated when the rats reached 8 weeks old. Test samples were orally administered using an oral gavage so that the compounds of the invention contained in the test samples were given in an amount of 100 mg/kg body weight (test sample dosage: 5 ml/kg body weight). The test samples were administered once a day over 4 weeks at a specific time of day.
As a control, a group of rats were administered with the same amount of 5% aqueous gum arabic solution (5 ml/kg body weight) instead of the test samples.
The rats of all groups were weighed on the last day of administration. The average body weight of the rats of each test group was compared with the average body weight (standard weight) of the rats of the control group to obtain the weight variations (differences). The weight differences were expressed as percentages in relation to the standard weight. The values thus calculated are referred to as “weight change %”. When a weight difference is negative relative to the standard weight, weight change % is shown with “−” (minus).
During the test period, the rats of the respective groups had free access to rat feed (“CRF-1”, manufactured by Oriental Yeast, Co., Ltd.) and water (tap water).

The structures appear in SMILES notation.

Regarding `COc1cc(-c2cn3ccccc3n2)ccc1OCc1ccc(Cl)cc1` [Example 10], the “Decrease in plasma triglyceride level (%)” value in experiment [1] (10 mg/kg oral) was 48%; in experiment [1] (30 mg/kg oral), 67%; in experiment [1] (100 mg/kg oral) it was 74%. The “Weight Change (%)” value in experiment [2] is −15%.
